From paper PMC6155626 (Molecules : A Journal of Synthetic Chemistry and Natural …, 2016)
≈ marks a conversion by molar mass, not a printed value. Where “and” joins values, the source holds several entries; their conditions need not be identical. Equal entries are not always repeated. Where two headings read alike, the source gives them in different places.

Experiments:
[1] = test system: tobacco leaves; conditions: for Necrosis (lesion diameter) on tobacco leaves: Nicotiana benthamiana (tobacco)
[2] = test system: X. oryzae in rice plant; conditions: 200 μg/mL; cited from earlier work
[3] = test system: Ralstonia solanacearum; test: microbe, parasite or virus in culture; assay type: cell-based; conditions: for EC50 / Inhibition rate: R. solanacearum; for inhibition at 100 µg/mL / inhibition at 200 µg/mL: read-out: Inhibition rate; for Inhibition rate: average of three replicates
[4] = test system: X. oryzae in rice plant; assay type: in vivo, Xanthomonas oryzae pv. oryzae; conditions: 200 μg/mL, 14 days after spraying
[5] = test system: Xanthomonas axonopodis pv. citri; test: microbe, parasite or virus in culture; assay type: cell-based; conditions: for inhibition at 100 µg/mL / inhibition at 200 µg/mL: read-out: Inhibition rate
[6] = test system: Xanthomonas oryzae pv. oryzae; test: microbe, parasite or virus in culture; assay type: cell-based; conditions: for inhibition at 100 µg/mL: read-out: Inhibition rate, X. oryzae, 100 μg/mL, average of three replicates; for inhibition at 200 µg/mL: read-out: Inhibition rate, X. oryzae, 200 μg/mL, average of three replicates; for Inhibition rate: average of three replicates
[7] = test system: rice seeds (Fengyou Xiangzhan)
[8] = test system: Xanthomonas oryzae pv. oryzae; conditions: X. oryzae, previously reported analog, cited from earlier work
[9] = test system: Ralstonia solanacearum; conditions: R. solanacearum, previously reported analog, cited from earlier work
[10] = Fengyou Xiangzhan, rice, in vivo
[11] = 50 to 300 μM, four days after inoculation

## S=c1[nH]nc(NCNc2n[nH]c(=S)s2)s1 [Bismerthiazol, 5,5′-(methylenediimino)bis-1,3,4-Thiadiazole-2(3H)-thione, reference compound]
[1]; in vivo
  Necrosis (lesion diameter) on tobacco leaves: 0.2–0.3 cm
  Phytotoxic effect on tobacco plant (in words): no or negligible phytotoxic effect
[2]
  Control efficiency against rice bacterial leaf blight: 25.49%
[3]; Ralstonia solanacearum
  EC50: 59.7 ± 2.56 µg/mL (≈ 214 µM)
  inhibition at 100 µg/mL: 99%
  inhibition at 200 µg/mL: 100%
[4]
  Disease Index: 60.0
  Morbidity: 100.0%
  Protective Efficiency: 25.6% and 25.6 ± 4.4%
[5]
  EC50: 119.5 ± 5.1 µg/mL
[5]; Xanthomonas axonopodis
  EC50: 119 µg/mL
  inhibition at 100 µg/mL: 45%
  inhibition at 200 µg/mL: 67%
[5]; Xanthomonas axonopodis, read-out: Bactericidal EC50 in molar terms
  EC50: ~333 µM
[6]; Xanthomonas oryzae
  EC50: 92.6 ± 2.15 µg/mL (≈ 333 µM)
  inhibition at 100 µg/mL: 54%
  inhibition at 200 µg/mL: 72%
[7]; [10]
  Concentration showing phytotoxicity on rice germination: 300 µM

## CS(=O)(=O)c1nnc(Cc2ccc(Cl)cc2Cl)o1 [C00001 (R = 2,4-di Cl, X = CH2)]
[8]; X = CH2
  EC50: 1.96 ± 0.99 ^15 μg/mL
[9]; X = CH2
  EC50: 59.9 ^26 μg/mL

## CS(=O)(=O)c1nnc(-c2ccc(Cl)cc2Cl)o1 [C00001 (R = 2,4-di Cl, X = No Atom)]
[8]; X = No Atom
  EC50: 52.14 ± 1.05 ^16 μg/mL
[9]; X = No Atom
  EC50: 16.55 ± 1.12 ^14 μg/mL

## CS(=O)(=O)c1nnc(Cc2ccc(Cl)cc2)o1 [C00001 (R = 4-Cl, X = CH2)]
[8]; X = CH2
  EC50: 12.23 ± 1.45 ^15 μg/mL

## CS(=O)(=O)c1nnc(-c2ccc(Cl)cc2)o1 [C00001 (R = 4-Cl, X = No Atom)]
[8]; X = No Atom
  EC50: 23.21 ± 0.98 ^16 μg/mL
[9]; X = No Atom
  EC50: 120.90 ± 2.6 ^14 μg/mL

## CS(=O)(=O)c1nnc(Cc2ccc(F)cc2)o1 [C00001 (R = F, X = CH2), 2-(4-fluorobenzyl)-5-(methylsulfonyl)-1,3,4-oxadiazole]
[8]; X = CH2
  EC50: 1.07 ± 0.68 ^15 μg/mL

## CS(=O)(=O)c1nnc(-c2ccc(F)cc2)o1 [C00001 (R = F, X = No Atom), 2-(4-fluorophenzyl)-5-(methylsulfonyl)-1,3,4-oxadiazole]
[8]; X = No Atom
  EC50: 9.89 ± 1.52 ^16 μg/mL
[9]; X = No Atom
  EC50: 8.29 ± 0.56 ^14 μg/mL

## CS(=O)(=O)c1nnc(COc2ccc(F)cc2)o1 [Compound 5I-1, 2-(4-Fluorophenoxymethyl)-5-(methylsulfonyl)-1,3,4-oxadiazole]
[1]; [11]
  Phytotoxic effect on tobacco plant (in words): no apparently phytotoxicity
[1]; in vivo
  Necrosis (lesion diameter) on tobacco leaves: 0.2–0.3 cm
  Phytotoxic effect on tobacco plant (in words): no or negligible phytotoxic effect
[3]
  EC50: 1.97 ± 0.23 µg/mL (≈ 7.24 µM)
[3]; Ralstonia solanacearum
  EC50: 1.67 µg/mL (≈ 6.13 µM)
  inhibition at 100 µg/mL: 100%
  inhibition at 200 µg/mL: 100%
[4]
  Disease Index: 15.6
  Morbidity: 100.0%
  Protective Efficiency: 90.4% and 90.4 ± 2.8%
[5]; Xanthomonas axonopodis
  EC50: 80.5 ± 5.38 µg/mL
  inhibition at 100 µg/mL: 72%
  inhibition at 200 µg/mL: 80%
[6]; Xanthomonas oryzae
  EC50: 0.45 ± 0.06 µg/mL (≈ 1.65 µM)
  inhibition at 100 µg/mL: 100%
  inhibition at 200 µg/mL: 100%
[7]; [10]
  Phenotypic effect on rice seedlings, root growth and shoot development (in words): barely effected root growth or inhibited shoot development at concentration 1–100 μM
[7]; concentration (1–300 μM)
  Phenotypic effect on rice seedlings, root growth and shoot development (in words): no apparently phytotoxicity
other
  melting point: 108 to 110 °C

## CS(=O)(=O)c1nnc(COc2ccc(Cl)cc2)o1 [Compound 5I-2, 2-((4-Chlorophenoxy)methyl)-5-(methylsulfonyl)-1,3,4-oxadiazole]
[1]; [11]
  Phytotoxic effect on tobacco plant (in words): no apparently phytotoxicity
[1]; in vivo
  Necrosis (lesion diameter) on tobacco leaves: 0.2–0.3 cm
  Phytotoxic effect on tobacco plant (in words): no or negligible phytotoxic effect
[3]; Ralstonia solanacearum
  EC50: 13.4 ± 1.54 µg/mL (≈ 46.5 µM)
  inhibition at 100 µg/mL: 100%
  inhibition at 200 µg/mL: 100%
[4]
  Disease Index: 23.8
  Morbidity: 100.0%
  Protective Efficiency: 77.7% and 77.7 ± 3.4%
[5]; Xanthomonas axonopodis
  EC50: 31.4 ± 3.56 µg/mL
  inhibition at 100 µg/mL: 76%
  inhibition at 200 µg/mL: 88%
[6]; Xanthomonas oryzae
  EC50: 1.44 ± 0.18 µg/mL (≈ 4.99 µM)
  inhibition at 100 µg/mL: 100%
  inhibition at 200 µg/mL: 100%
[7]; concentration (1–300 μM)
  Phenotypic effect on rice seedlings, root growth and shoot development (in words): no apparently phytotoxicity
[7]; in vivo
  Phenotypic effect on rice seedlings, root growth and shoot development (in words): predominantly inhibited root growth while allowing moderate shoot development
other
  melting point: 113 to 114 °C

## CS(=O)(=O)c1nnc(COc2ccc(Cl)cc2Cl)o1 [Compound 5I-4, 2-((2,4-Dichlorophenoxy)methyl)-5-(methylsulfonyl)-1,3,4-oxadiazole]
[1]; in vivo
  Necrosis (lesion diameter) on tobacco leaves: 0.2–0.3 cm
  Phytotoxic effect on tobacco plant (in words): no or negligible phytotoxic effect
[3]; Ralstonia solanacearum
  EC50: 20.5 ± 1.56 µg/mL (≈ 63.5 µM)
  inhibition at 100 µg/mL: 100%
  inhibition at 200 µg/mL: 100%
[4]
  Morbidity: 100.0%
[5]; Xanthomonas axonopodis
  EC50: 49 ± 2.34 µg/mL
  inhibition at 100 µg/mL: 48%
  inhibition at 200 µg/mL: 69%
[6]; Xanthomonas oryzae
  EC50: 0.72 ± 0.15 µg/mL (≈ 2.23 µM)
  inhibition at 100 µg/mL: 100%
  inhibition at 200 µg/mL: 100%
[7]; [10]
  Phenotypic effect on rice seedlings, root growth and shoot development (in words): severely inhibited both root growth and shoot development even at the lowest concentration 1 μM
[7]; concentration (1–300 μM)
  Phenotypic effect on rice seedlings, root growth and shoot development (in words): highly suppressed both root and shoot development

## CCS(=O)(=O)c1nnc(COc2ccc(Cl)cc2Cl)s1 [Compound 5II-7, 2-((2,4-Dichlorophenoxy)methyl)-5-(ethylsulfonyl)-1,3,4-thiadiazole]
[3]; Ralstonia solanacearum
  inhibition at 100 µg/mL: 0%
  inhibition at 200 µg/mL: 0%
[5]; Xanthomonas axonopodis
  inhibition at 100 µg/mL: 6%
  inhibition at 200 µg/mL: 32%
[6]; Xanthomonas oryzae
  inhibition at 100 µg/mL: 13%
  inhibition at 200 µg/mL: 20%
other
  melting point: 127 to 128 °C

## O=S(=O)(Cc1ccccc1)c1nnc(COc2ccc(F)cc2)s1 [Compound 5II-8, 2-(Benzylsulfonyl)-5-((4-fluorophenoxy)methyl)-1,3,4-thiadiazole]
[3]; Ralstonia solanacearum
  inhibition at 100 µg/mL: 10%
  inhibition at 200 µg/mL: 30%
[5]; Xanthomonas axonopodis
  inhibition at 100 µg/mL: 21%
  inhibition at 200 µg/mL: 24%
[6]; Xanthomonas oryzae
  inhibition at 100 µg/mL: 8%
  inhibition at 200 µg/mL: 24%
other
  melting point: 132 to 134 °C

## O=S(=O)(Cc1ccccc1)c1nnc(COc2ccc(Cl)cc2)s1 [Compound 5II-9, 2-(Benzylsulfonyl)-5-((4-chlorophenoxy)methyl)-1,3,4-thiadiazole]
[3]; Ralstonia solanacearum
  inhibition at 100 µg/mL: 18%
  inhibition at 200 µg/mL: 17%
[5]; Xanthomonas axonopodis
  inhibition at 100 µg/mL: 23%
  inhibition at 200 µg/mL: 14%
[6]; Xanthomonas oryzae
  inhibition at 100 µg/mL: 14%
  inhibition at 200 µg/mL: 19%
other
  melting point: 140 to 141 °C

## O=S(=O)(Cc1ccccc1)c1nnc(COc2ccc(Br)cc2)s1 [Compound 5II-10, 2-(Benzylsulfonyl)-5-((4-bromophenoxy)methyl)-1,3,4-thiadiazole]
[3]; Ralstonia solanacearum
  inhibition at 100 µg/mL: 1%
  inhibition at 200 µg/mL: 11%
[5]; Xanthomonas axonopodis
  inhibition at 100 µg/mL: 8%
  inhibition at 200 µg/mL: 5%
[6]; Xanthomonas oryzae
  inhibition at 100 µg/mL: 0%
  inhibition at 200 µg/mL: 10%
other
  melting point: 147 to 148 °C

## O=S(=O)(Cc1ccccc1)c1nnc(COc2ccc(Cl)cc2Cl)s1 [Compound 5II-11, 2-(Benzylsulfonyl)-5-((2,4-dichlorophenoxy)methyl)-1,3,4-thiadiazole]
[3]; Ralstonia solanacearum
  inhibition at 100 µg/mL: 26%
  inhibition at 200 µg/mL: 27%
[5]; Xanthomonas axonopodis
  inhibition at 100 µg/mL: 32%
  inhibition at 200 µg/mL: 38%
[6]; Xanthomonas oryzae
  inhibition at 100 µg/mL: 14%
  inhibition at 200 µg/mL: 37%
other
  melting point: 124 to 125 °C

## Cc1cc(Cl)ccc1OCc1nnc(S(=O)(=O)Cc2ccccc2)s1 [Compound 5II-12, 2-(Benzylsulfonyl)-5-((4-chloro-2-methylphenoxy)methyl)-1,3,4-thiadiazole]
[3]; Ralstonia solanacearum
  inhibition at 100 µg/mL: 0%
  inhibition at 200 µg/mL: 0%
[5]; Xanthomonas axonopodis
  inhibition at 100 µg/mL: 33%
  inhibition at 200 µg/mL: 10%
[6]; Xanthomonas oryzae
  inhibition at 100 µg/mL: 0%
  inhibition at 200 µg/mL: 5%
other
  melting point: 125 to 126 °C

## Nc1nnc([S-])s1.Nc1nnc([S-])s1.[Cu+2] [Thiodiazole-copper, 2-amino-5-mercapto-1,3,4-thiadiazole-copper, reference compound]
[3]
  EC50: >200 µg/mL
[3]; 100 μg/mL
  Inhibition rate: 35%
[3]; 200 μg/mL
  Inhibition rate: 50%
[4]
  Disease Index: 55.6
  Morbidity: 100.0%
  Protective Efficiency: 32.0 ± 3.0%
[4]; listed as Thiadiazole-copper
  Protective Efficiency: 32.0%
[5]
  EC50: 107.04 ± 1.96 µg/mL
  Inhibition rate: 65% and 47%
[6]; X. oryzae
  EC50: 121.82 ± 3.59 µg/mL
[6]; X. oryzae, 100 μg/mL
  Inhibition rate: 35%
[6]; X. oryzae, 200 μg/mL
  Inhibition rate: 69%
